Test results taken from patent publication US20230295200A1 (REGENTS OF THE UNIVERSITY OF MICHIGAN, priority 2022, published 2023).

molecular target: T1, STAT6 protein (Homo sapiens, UniProt P42226); test: Fluorescence polarization (FP) binding assay, STAT6; conditions: FP competition, 5 nM fluorescein-labeled tracer, 200 nM protein, PBS pH7.4; read-out: Binding STAT6
T1 sequence (P42226 1-847): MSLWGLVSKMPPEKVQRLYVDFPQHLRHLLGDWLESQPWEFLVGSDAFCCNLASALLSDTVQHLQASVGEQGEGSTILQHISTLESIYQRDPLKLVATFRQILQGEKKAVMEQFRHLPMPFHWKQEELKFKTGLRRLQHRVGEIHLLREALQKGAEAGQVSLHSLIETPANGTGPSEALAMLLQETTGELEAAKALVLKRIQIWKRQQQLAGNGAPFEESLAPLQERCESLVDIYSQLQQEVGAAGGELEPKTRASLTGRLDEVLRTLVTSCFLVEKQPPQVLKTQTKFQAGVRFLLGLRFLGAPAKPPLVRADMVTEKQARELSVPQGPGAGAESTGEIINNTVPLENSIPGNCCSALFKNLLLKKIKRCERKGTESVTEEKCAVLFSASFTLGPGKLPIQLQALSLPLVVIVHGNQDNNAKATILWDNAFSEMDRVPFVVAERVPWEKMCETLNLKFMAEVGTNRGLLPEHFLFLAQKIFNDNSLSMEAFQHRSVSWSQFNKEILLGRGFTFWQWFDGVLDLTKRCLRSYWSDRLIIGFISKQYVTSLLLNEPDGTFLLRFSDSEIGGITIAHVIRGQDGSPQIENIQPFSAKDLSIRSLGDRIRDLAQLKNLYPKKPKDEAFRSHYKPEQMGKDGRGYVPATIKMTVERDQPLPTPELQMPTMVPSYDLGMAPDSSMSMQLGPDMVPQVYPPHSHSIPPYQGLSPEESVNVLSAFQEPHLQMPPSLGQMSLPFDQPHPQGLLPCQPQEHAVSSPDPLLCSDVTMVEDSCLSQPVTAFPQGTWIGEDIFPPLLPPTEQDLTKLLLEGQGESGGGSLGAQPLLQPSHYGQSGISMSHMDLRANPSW
Procedure: Evaluation of the activity of the inhibitors may be accomplished by fluorescence polarization (FP) experiments. A representative general protocol is the following:
Fluorescence polarization (FP) experiments are performed in black round-bottom plates using the CLARIOstar microplate reader. To each well, fluorescein-labeled tracer and STAT5 or STAT6 protein are added in assay buffer. […] The inhibition constants are determined as the concentration of the STAT5 or STAT6 at which 50% of the ligand is bound.
Fluorescence polarization (FP) experiments were performed in 96-well, black round-bottom plates (Microfluor 2, Fisher Scientific) using the CLARIOstar microplate reader (BMG Labtech). To each well, 5 nM of fluoresceinlabeled tracer and 200 nM of STAT5 and/or STAT6 protein were added to a final volume of 100 μl in the assay buffer (PBS pH7.4+0.01% BGG+0.01% Tween-20, 2 mM DTT). The plate was mixed on a shaker for 15 m and incubated at room temperature for 1 h to reach equilibrium. […] All experimental data were analyzed using Prism 8.0 software (GraphPad Software), and the inhibition constants were determined by nonlinear curve fitting as the concentration of the STAT5 and/or STAT6 at which 50% of the ligand is bound.

SMILES	Ki [µM]
CCOC(=O)CO[C@H]1C[C@@H](C(=O)N(CCC(=O)O)c2ccc(Br)cc2)N(C(=O)[C@@H](NC(=O)c2cc3cc(C(F)(F)P(=O)(O)O)ccc3s2)C(C)(C)C)C1 [Compound 47, 3-((2S,4S)-N-(4-bromophenyl)-1-((S)-2-(5-(difluoro(phosphono)methyl)benzo [b]thiophene-2-carboxamido)-3,3-dimethylbutanoyl)-4-(2-ethoxy-2-oxoethoxy)pyrrolidine-2-carboxamido)propanoic acid]	0.1 to 1
CCOC(=O)CO[C@@H]1C[C@@H](C(=O)N(CCC(=O)O)c2ccc(Br)cc2)N(C(=O)[C@@H](NC(=O)c2cc3cc(C(F)(F)P(=O)(O)O)ccc3s2)C(C)(C)C)C1 [Compound 48, 3-((2S,4R)-N-(4-bromophenyl)-1-((S)-2-(5-(difluoro(phosphono)methyl)benzo[b]thiophene-2-carboxamido)-3,3-dimethylbutanoyl)-4-(2-ethoxy-2-oxoethoxy)pyrrolidine-2-carboxamido)propanoic acid]	0.1 to 1
CC(C)(C)[C@H](NC(=O)c1cc2cc(C(F)(F)P(=O)(O)O)ccc2s1)C(=O)N1C[C@@H](OCC(=O)O)C[C@H]1C(=O)N(CCC(=O)O)c1ccc(Br)cc1 [Compound 49, 3-((2S,4S)-N-(4-bromophenyl)-4-(carboxymethoxy)-1-((S)-2-(5-(difluoro(phosphono)methyl)benzo[b]thiophene-2-carboxamido)-3,3-dimethylbutanoyl)pyrrolidine-2-carboxamido)propanoic acid]	0.1 to 1
CC(C)(C)[C@H](NC(=O)c1cc2cc(C(F)(F)P(=O)(O)O)ccc2s1)C(=O)N1C[C@H](OCC(=O)O)C[C@H]1C(=O)N(CCC(=O)O)c1ccc(Br)cc1 [Compound 50, 3-((2S,4R)-N-(4-bromophenyl)-4-(carboxymethoxy)-1-((S)-2-(5-(difluoro(phosphono)methyl)benzo[b]thiophene-2-carboxamido)-3,3-dimethylbutanoyl)pyrrolidine-2-carboxamido)propanoic acid]	0.1 to 1
CNC(=O)CCN(C(=O)[C@@H]1C[C@H](OCC(=O)NC)CN1C(=O)[C@@H](NC(=O)c1cc2cc(C(F)(F)P(=O)(O)O)ccc2s1)C(C)(C)C)c1ccc(Br)cc1 [Compound 51, ((2-(((S)-1-((2S,4S)-2-((4-bromophenyl)(3-(methylamino)-3-oxopropyl)carbamoyl)-4-(2-(methylamino)-2-oxoethoxy)pyrrolidin-1-yl)-3,3-dimethyl-1-oxobutan-2-yl)carbamoyl)benzo[b]thiophen-5-yl)difluoromethyl)phosphonic acid]	0.1 to 1
CNC(=O)CCN(C(=O)[C@@H]1C[C@@H](OCC(=O)NC)CN1C(=O)[C@@H](NC(=O)c1cc2cc(C(F)(F)P(=O)(O)O)ccc2s1)C(C)(C)C)c1ccc(Br)cc1 [Compound 52, ((2-(((S)-1-((2S,4R)-2-((4-bromophenyl)(3-(methylamino)-3-oxopropyl)carbamoyl)-4-(2-(methylamino)-2-oxoethoxy)pyrrolidin-1-yl)-3,3-dimethyl-1-oxobutan-2-yl)carbamoyl)benzo[b]thiophen-5-yl)difluoromethyl)phosphonic acid]	0.1 to 1
CCOC(=O)CO[C@H]1C[C@@H](C(=O)Nc2ccc(I)cc2)N(C(=O)[C@@H](NC(=O)c2cc3cc(C(F)(F)P(=O)(O)O)ccc3s2)C(C)(C)C)C1 [Compound 53, ((2-(((S)-1-((2S,4S)-4-(2-ethoxy-2-oxoethoxy)-2-((4-iodophenyl)carbamoyl)pyrrolidin-1-yl)-3,3-dimethyl-1-oxobutan-2-yl)carbamoyl)benzo[b]thiophen-5-yl)difluoromethyl)phosphonic acid]	1 to 10
CCOC(=O)CO[C@H]1C[C@@H](C(=O)N(C)c2ccc(Br)cc2)N(C(=O)[C@@H](NC(=O)c2cc3cc(C(F)(F)P(=O)(O)O)ccc3s2)C(C)(C)C)C1 [Compound 54, ((2-(((S)-1-((2S,4S)-2-((4-bromophenyl)(methyl)carbamoyl)-4-(2-ethoxy-2-oxoethoxy)pyrrolidin-1-yl)-3,3-dimethyl-1-oxobutan-2-yl)carbamoyl)benzo[b]thiophen-5-yl)difluoromethyl)phosphonic acid]	0.1 to 1
CCCN(C(=O)[C@@H]1C[C@H](OCC(=O)OCC)CN1C(=O)[C@@H](NC(=O)c1cc2cc(C(F)(F)P(=O)(O)O)ccc2s1)C(C)(C)C)c1ccc(Br)cc1 [Compound 55, ((2-(((S)-1-((2S,4S)-2-((4-bromophenyl)(propyl)carbamoyl)-4-(2-ethoxy-2-oxoethoxy)pyrrolidin-1-yl)-3,3-dimethyl-1-oxobutan-2-yl)carbamoyl)benzo[b]thiophen-5-yl)difluoromethyl)phosphonic acid]	0.1 to 1
CCOC(=O)CO[C@H]1C[C@@H](C(=O)N(CCC(=O)NC)c2ccc(Br)cc2)N(C(=O)[C@@H](NC(=O)c2cc3cc(C(F)(F)P(=O)(O)O)ccc3s2)C(C)(C)C)C1 [Compound 56, ((2-(((S)-1-((2S,4S)-2-((4-bromophenyl)(3-(methylamino)-3-oxopropyl)carbamoyl)-4-(2-ethoxy-2-oxoethoxy)pyrrolidin-1-yl)-3,3-dimethyl-1-oxobutan-2-yl)carbamoyl)benzo[b]thiophen-5-yl)difluoromethyl)phosphonic acid]	0.1 to 1
CCOC(=O)CO[C@H]1C[C@@H](C(=O)N(CCC(=O)N(C)C)c2ccc(Br)cc2)N(C(=O)[C@@H](NC(=O)c2cc3cc(C(F)(F)P(=O)(O)O)ccc3s2)C(C)(C)C)C1 [Compound 57, ((2-(((S)-1-((2S,4S)-2-((4-bromophenyl)(3-(dimethylamino)-3-oxopropyl)carbamoyl)-4-(2-ethoxy-2-oxoethoxy)pyrrolidin-1-yl)-3,3-dimethyl-1-oxobutan-2-yl)carbamoyl)benzo[b]thiophen-5-yl)difluoromethyl)phosphonic acid]	0.1 to 1
CC(C)(C)[C@H](NC(=O)c1cc2cc(C(F)(F)P(=O)(O)O)ccc2s1)C(=O)N1Cc2ccccc2C[C@H]1C(=O)N1CCOC(c2cccnc2)C1 (stereo partly drawn) [Compound 217, ((2-(((2S)-3,3-dimethyl-1-oxo-1-((3S)-3-(2-(pyridin-3-yl)morpholine-4-carbonyl)-3,4-dihydroisoquinolin-2(1H)-yl)butan-2-yl)carbamoyl)benzo[b]thiophen-5-yl)difluoromethyl)phosphonic acid]	< 0.1
CC(C)(C)[C@H](NC(=O)c1cc2cc(C(F)(F)P(=O)(O)O)ccc2s1)C(=O)N1Cc2ccccc2C[C@H]1C(=O)N1CCOC(c2ccncc2)C1 (stereo partly drawn) [Compound 218, ((2-(((2S)-3,3-dimethyl-1-oxo-1-((3S)-3-(2-(pyridin-4-yl)morpholine-4-carbonyl)-3,4-dihydroisoquinolin-2(1H)-yl)butan-2-yl)carbamoyl)benzo[b]thiophen-5-yl)difluoromethyl)phosphonic acid]	0.1 to 1
CC(C)(C)[C@H](NC(=O)c1cc2cc(C(F)(F)P(=O)(O)O)ccc2s1)C(=O)N1Cc2ccccc2C[C@H]1C(=O)N1CCOC(c2nccs2)C1 (stereo partly drawn) [Compound 219, ((2-(((2S)-3,3-dimethyl-1-oxo-1-((3S)-3-(2-(thiazol-2-yl)morpholine-4-carbonyl)-3,4-dihydroisoquinolin-2(1H)-yl)butan-2-yl)carbamoyl)benzo[b]thiophen-5-yl)difluoromethyl)phosphonic acid]	< 0.1
